Test results: US11793845B2, “Composition for ameliorating peripheral sensory neuropathy” (KINKI UNIVERSITY, priority 2016, dated 2023)
One block for each molecule: values may come before it.

How the values were obtained:
Format in all cases: in vivo
[1] = tested on: Peripheral Sensory Neuropathy Induced by Vincristine in Mice; test: cold plate test, vincristine-induced peripheral sensory neuropathy; settings: vincristine 0.2 mg/kg once a day alone; Day 3
Method: (§1) The effect of the Lentinus edodes mycelium extract on the paresthesia to cold stimulation was tested by performing the cold plate test. The mice in the three groups in the above (1) were put on a cold plate set to 10° C. and a response time for avoidance (a latency) was measured. The shorter latency means that the mouse avoids the cold stimulation of the cold plate more.
(§2) In the present test, the mice were divided into three groups by a difference in test objects. As in Example 1, male Balb/c mice of 6 to 7 weeks old were used. The mice were divided into a total of three groups, a control group, a vincristine
administration group, and a vincristine and Lentinus edodes mycelium extract administration group (vincristine+Lentinus edodes mycelium extract administration group).
(§3) Vincristine was administered to each mouse once a day at a dose of 0.2 mg/kg. Further, the Lentinus edodes mycelium extract was administered to each mouse once a day at a dose of 2 g/kg.
Evaluation was performed in the same manner as in the test with oxaliplatin in Example 1. Referring to FIG. 6, the horizontal axis indicates the elapsed time after administration (days) and the vertical axis indicates the avoidance response time (seconds). Open circles with a solid line represent the control group. Filled circles with a solid line represent the group in which only vincristine was administered. Open squares with a dash line represent the group in which vincristine and the Lentinus edodes mycelium extract were administered at the same time (vincristine+Lentinus edodes mycelium extract administration group). When the difference with the control group was determined to be significant using a significance level of 5%, the data were marked by “*”.
(§4) In the present test, the mice were divided into six groups by a difference in test objects. As in Example 1, male Balb/c mice of 6 to 7 weeks old were used. […]

[2] = tested on: Peripheral Sensory Neuropathy Induced by Vincristine in Mice; test: von Frey test, vincristine-induced peripheral sensory neuropathy; settings: vincristine 0.2 mg/kg once a week alone, compared with control group; three days after the administration
From the text: (§5) The mice in the three groups in the above (1) were put in a cage and a filament having a strength of 0.16 g was pressed on the plantar surface of the leg to measure the number of times (a score) of avoidance response.
as §2, with “vincristine administration group, and a vincristine and Lentinus edodes mycelium extract administration group (vincristine+Lentinus edodes mycelium extract administration group).” for “vincristine”
as §3
Further, the number of times of administration was set to once a week (on Day 0, Day 7, and Day 14) for vincristine and daily (from Day 0 to Day 15) for the Lentinus edodes mycelium extract in both the von Frey test and the cold plate test below.
Evaluation was performed in the same manner as in the test with oxaliplatin in Example 1. Referring to FIG. 5, the horizontal axis indicates an elapsed time after administration (days) and the vertical axis indicates the avoidance response (scores). Open circles with a solid line represent the control group. Filled circles with a solid line represent the group in which only vincristine was administered. Open squares with a dash line represent the group in which vincristine and the Lentinus edodes mycelium extract were administered at the same time (vincristine+Lentinus edodes mycelium extract administration group). When the difference with the control group was determined to be significant using a significance level of 5%, the data were marked by “*”.
as §4

[3] = tested on: Peripheral Sensory Neuropathy Induced by Bortezomib in Mice; test: von Frey test, bortezomib-induced peripheral sensory neuropathy; settings: bortezomib 1 mg/kg once a week alone, compared with control group; three days after the administration
From the text: as §5
as §2, with “bortezomib administration group, and a bortezomib and Lentinus edodes mycelium extract administration group (bortezomib+Lentinus edodes mycelium extract administration group).” for “vincristine”
(§6) Bortezomib was administered to each mouse once a day at a dose of 1 mg/kg. Further, the Lentinus edodes mycelium extract was administered to each mouse once a day at a dose of 2 g/kg.
Further, the number of times of administration was set to once a week (on Day 0, Day 7, and Day 14) for bortezomib and daily (from Day 0 to Day 15) for the Lentinus edodes mycelium extract in both the von Frey test and the cold plate test below.
Evaluation was performed in the same manner as in the test with oxaliplatin in Example 1. Referring to FIG. 7, the horizontal axis indicates an elapsed time after administration (days) and the vertical axis indicates the avoidance response (scores). Open circles with a solid line represent the control group. Filled circles with a solid line represent the group in which only bortezomib was administered. Open squares with a dash line represent the group in which bortezomib and the Lentinus edodes mycelium extract were administered at the same time (bortezomib+Lentinus edodes mycelium extract administration group). When the difference with the control group was determined to be significant using a significance level of 5%, the data were marked by “*”.
as §4

[4] = tested on: Peripheral Sensory Neuropathy Induced by Bortezomib in Mice; test: cold plate test, bortezomib-induced peripheral sensory neuropathy; settings: bortezomib 1 mg/kg once a day alone; Day 3
Method: as §1
as §2, with “bortezomib administration group, and a bortezomib and Lentinus edodes mycelium extract administration group (bortezomib+Lentinus edodes mycelium extract administration group).” for “vincristine”
as §6
Evaluation was performed in the same manner as in the test with oxaliplatin in Example 1. Referring to FIG. 8, the horizontal axis indicates the elapsed time after administration (days) and the vertical axis indicates the avoidance response time (seconds). Open circles with a solid line represent the control group. Filled circles with a solid line represent the group in which only bortezomib was administered. Open squares with a dash line represent the group in which bortezomib and the Lentinus edodes mycelium extract were administered at the same time (bortezomib+Lentinus edodes mycelium extract administration groups). When the difference with the control group was determined to be significant using a significance level of 5%, the data were marked by “*”.
as §4

[5] = tested on: Peripheral Sensory Neuropathy Induced by Oxaliplatin in Mice; test: cold plate test, oxaliplatin-induced peripheral sensory neuropathy; settings: oxaliplatin 6 mg/kg once a week alone; Day 3; cold plate 10° C.
Method: (§7) Male Balb/c mice of 6 to 7 weeks old were used. The mice were divided into three groups: a control group, an oxaliplatin administration group, and an oxaliplatin and Lentinus edodes mycelium extract administration group (oxaliplatin+Lentinus edodes mycelium extract administration group). Oxaliplatin was administered to each mouse once a day at a dose of 6 mg/kg. Further, the Lentinus edodes mycelium extract was administered to each mouse once a day at a dose of 2 g/kg.
(§8) Further, the number of times of administration was set to once a week (on Day 0, Day 7, and Day 14) for oxaliplatin and daily (from Day 0 to Day 15) for the Lentinus edodes mycelium extract in both the von Frey test and the cold plate test below.
Oxaliplatin was administered to each mouse once a day at a dose of 6 mg/kg. Further, the Lentinus edodes mycelium extract was administered to each mouse once a day at a dose of 2 g/kg three days or six days after the administration of oxaliplatin. These groups are referred to as “Lentinus edodes mycelium extract 3-day delayed administration group” and “Lentinus edodes mycelium extract 6-day delayed administration group”, respectively.
Further, groups in which duloxetine was administered after the administration of oxaliplatin were prepared for comparison.

[6] = tested on: Peripheral Sensory Neuropathy Induced by Oxaliplatin in Mice; test: von Frey test, oxaliplatin-induced peripheral sensory neuropathy; settings: oxaliplatin 6 mg/kg once a week alone, compared with control group; 0.16 g filament
Method: as §7, §8
The higher number of times of avoidance means that the mouse avoids the stimulation by the filament more. […] When the difference with the control group was determined to be significant using a significance level of 5%, the data were marked by “*”.

latency to the cold stimulation (avoidance response time), cold plate test [1]: significantly reduced | avoidance response (scores), von Frey test [2]: significantly increased
SMILES: CC[C@]1(O)C[C@H]2CN(CCc3c([nH]c4ccccc34)[C@@](C(=O)OC)(c3cc4c(cc3OC)N(C=O)[C@H]3[C@@](O)(C(=O)OC)[C@H](OC(C)=O)[C@]5(CC)C=CCN6CC[C@]43[C@@H]65)C2)C1 [vincristine]

avoidance response (scores), von Frey test [3]: significantly increased | latency to the cold stimulation (avoidance response time), cold plate test [4]: significantly reduced
SMILES: CC(C)C[C@H](NC(=O)[C@H](Cc1ccccc1)NC(=O)c1cnccn1)B(O)O [bortezomib]

SMILES: O=C1[O][Pt]2([NH][C@@H]3CCCC[C@H]3[NH]2)[O]C1=O [oxaliplatin]
latency to the cold stimulation (avoidance response time), cold plate test [5]: significantly reduced | avoidance response (scores), von Frey test [6]: significantly increased
